The compounds below were run on Dirofilaria immitis L1 larvae (assay: Screening against microfilaria (L1 larvae) of Dirofilaria immitis, survival/motility). Conditions: 72 h, read-out: Ranked D. immitis L1 MED Activity.
Type: in vivo
Method: Example 44. Screening of Compounds Against Microfilaria of Dirofilaria immitis
To evaluate the efficacy of compounds of the disclosure against Dirofilaria immitis, L1 stage larvae were exposed to various concentrations of the compounds to determine survival or paralysis of the larvae. Results are reported as the minimum effective dose (MED), defined as the concentration required to eliminate motility.
To perform the assay, microfilaria of Dirofilaria immitis were added to the wells of a microtiter plate containing buffer and the test compounds in DMSO. Microfilaria exposed to DMSO alone served as controls. An assessment was conducted at 72 hours to determine survival of the microfilaria.

First: CN(CC1CN(S(C)(=O)=O)CCS1(=O)=O)c1cc(N2CCCC3(CCCCC3)C2)nc(C(F)(F)F)n1 (stereo not shown) [Compound 42, 2-(((6-(2-azaspiro[5.5]undecan-2-yl)-2-(trifluoromethyl)pyrimidin-4-yl)(methyl)amino)methyl)-4-(methylsulfonyl)thiomorpholine 1,1-dioxide]
Second: CS(=O)(=O)N1CCOC(CNc2cc(N3CCCC4(CCCCC4)C3)nc(C(F)(F)F)n2)C1 (stereo not shown) [Compound 15, N-((4-(methylsulfonyl)morpholin-2-yl)methyl)-6-(2-azaspiro[5.5]undecan-2-yl)-2-(trifluoromethyl)pyrimidin-4-amine]
The minimal effective concentration of the first is higher: > 100000 µM for the first, < 10000 µM for the second.

`COC(=O)N1CCCC(CN(C)c2cc(N3CCCC4(CCCCC4)C3)nc(C(F)(F)F)n2)C1` (stereo not shown) [Compound 36, methyl 3-(((6-(2-azaspiro[5.5]undecan-2-yl)-2-(trifluoromethyl)pyrimidin-4-yl)(methyl)amino)methyl)piperidine-1-carboxylate] and `CN(Cc1ccc(S(C)(=O)=O)cc1)c1cc(N2CCCC3(CCCCC3)C2)nc(C(F)(F)F)n1` [Compound 6, N-methyl-N-(4-(methylsulfonyl)benzyl)-6-(2-azaspiro[5.5]undecan-2-yl)-2-(trifluoromethyl)pyrimidin-4-amine] cannot be ordered by minimal effective concentration: > 100000 µM for the first, > 100000 µM for the second.

Source: patent US20260365642A1, “ANTIPARASITIC COMPOUNDS” (Animol Discovery, Inc., priority 2023, published 2026)
